The results in this text go back to ChEMBL document CHEMBL5727761, “1-cyano-pyrrolidine compounds as USP30 inhibitors” (2020).

Molecules are shown by their SMILES.

For this test, the target named is T1, Ubiquitin carboxyl-terminal hydrolase 30 (Homo sapiens, UniProt Q70CQ3).
T1 sequence (Q70CQ3 whole entry): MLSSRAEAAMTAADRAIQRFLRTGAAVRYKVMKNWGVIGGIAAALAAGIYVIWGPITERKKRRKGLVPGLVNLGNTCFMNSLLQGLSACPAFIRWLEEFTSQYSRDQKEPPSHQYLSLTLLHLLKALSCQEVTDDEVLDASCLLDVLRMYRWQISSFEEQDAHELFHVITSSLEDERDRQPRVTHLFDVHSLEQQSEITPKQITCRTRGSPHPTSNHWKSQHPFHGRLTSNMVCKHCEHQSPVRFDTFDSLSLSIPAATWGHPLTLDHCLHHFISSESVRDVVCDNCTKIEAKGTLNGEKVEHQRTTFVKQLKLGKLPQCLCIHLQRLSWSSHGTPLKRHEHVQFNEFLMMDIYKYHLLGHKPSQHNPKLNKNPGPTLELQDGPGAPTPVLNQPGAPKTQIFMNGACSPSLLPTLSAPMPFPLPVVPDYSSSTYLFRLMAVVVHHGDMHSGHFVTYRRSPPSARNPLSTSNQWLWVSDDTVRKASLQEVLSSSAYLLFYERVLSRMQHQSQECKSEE
Description: Biochemical Fluorescence Intensity Kinetic Assay/Biochemical Fluorescence Intensity Assay: USP30 Biochemical Fluorescence Intensity Kinetic Assay.Reactions were performed in duplicate in black 384 well plates (small volume, Greiner 784076) in a final reaction volume of 21 μl. USP30 CD (Boston Biochem E-582 or 57-517, #64-0057-050 Ubiquigent) was diluted in reaction buffer (40 mM Tris, pH 7.5, 0.005% Tween 20, 0.5 mg/ml BSA, 5 mM beta-mercaptoethanol) to the equivalent of 0, 0.0005, 0.001, 0.005, and 0.01 μl/well. Buffer was optimised for optimal temperature, pH, reducing agent, salts, time of incubation, and detergent. Reactions were initiated by the addition of Ubiquitin-Rhodamine 110 (U-555, Boston Biochem) at a final concentration of 100 nM. Reactions were incubated at room temperature and read every 2 min for 120 min. Readings were performed on a Pherastar Plus (BMG Labtech). […] A typical 8-point dilution series would be 100, 30, 10, 3, 1, 0.3, 0.1, 0.03 μM final. Reactions were performed in duplicate in black 384 well plates (small volume, Greiner 784076) in a final reaction volume of 21 μl. Either 1 μl of 50% DMSO or diluted compound was added to the plate. USP30 was diluted in reaction buffer (40 mM Tris, pH 7.5, 0.005% Tween 20, 0.5 mg/ml BSA, 5 mM beta-mercaptoethanol) to the equivalent of 0.001 μl/well and 10 μl of diluted USP30 was added to the compound. […].

For `N#CN1C[C@H]2CCN(C(=O)N3CCc4ccccc43)[C@H]2C1`, the IC50 (usually the midpoint of a concentration-inhibition curve) was “in the range around 5.5 µM”.
As for `N#CN1CC[C@@H](NC(=O)c2ccc(N3CCOCC3)cc2)C1`, the IC50 result was “in the range around 0.55 µM”.
